Earlier results in patent publication US20100160366A1, “TREATMENT METHOD” (Schering Corporation, priority 2000, published 2010).

Experiments:
[1] = tested on: monocytes
[2] = tested on: allergic immune cells; details: allergic immune cells in vitro
[3] = tested on: IL-6
[4] = tested on: ICAM-1
[5] = tested on: eosinophils

## CCOC(=O)N1CCC(=C2c3ccc(Cl)cc3CCc3cccnc32)CC1 [loratadine]
[1]
  activation of monocytes as measured by superoxide anion production: reduced
[2]
  release of mast cell histamine: inhibit
  release of the cysteinyl leukotriene LTC4: inhibit
[3]
  inflammatory cytokine IL-6: inhibited
[4]
  adhesion molecule ICAM-1 expression: reduced
[5]
  activity of eosinophils: inhibited
  chemotaxis of eosinophils: inhibited
